Assay results taken from US20030207843A1, “Treatment of drug-resistant human immunodeficiency virus infection” (priority 1999, published 2003).
Where two headings read alike, the source gives them in different places.

Legend:
[1] = test system: HIV-1LAI W88G; assay: p24 reduction assay in MT-2 cells, W88G; assay type: cell-based; details: for EC50: W88G
Procedure: (§1) Cells. MT-2 cells (AIDS Research and Reference Reagent Program, National Institute of Allergy and Infectious Diseases, National Institutes of Health) were maintained in RPMI 1640 supplemented with 10% fetal bovine serum (FBS; JRH Biosciences, Lenexa, Kans.), 10 mM HEPES buffer, 50 IU/ml penicillin and 50 μg/ml streptomycin.
(§2) Antiviral Susceptibility Assays. The antiviral activity of each compound was determined by inoculating MT-2 cells with HIV-1LAI at a multiplicity of infection (MOI) of 0.01 TCID50/cell, followed by incubation in the presence of three-fold serial drug dilutions (3 wells per dilution) (see Mellors, et. al., Antimicrob. Agents Chemother. 39:1087-1092). Five or seven days after infection, culture supernatants were harvested, lysed with 0.5% triton-X 100 and assayed for p24 antigen concentration using a commercial ELISA assay (DuPont, NEN Products, Wilmington, Del.). The antiviral activity of the compounds is expressed as the IC50, which is the concentration required to inhibit 50% of p24 antigen production. The fold-resistance of a test virus is calculated by dividing the IC50 of the test virus by the IC50 of the HIV-1LAI control virus.
(§3) Generation of Mutant Recombinant HIV-1. HIV-1 containing the desired mutations were generated by oligonucleotide directed mutagenesis (Altered Sites II, Promega) as previously described (Mellors, et. al., Molecular Pharm. 41:446-451). After mutagenesis, mutant RT was subcloned into the pxxHIV-1LAI cloning vector using the silent XmaI and XbaI restriction sites located at the 5′ and 3′ ends of RT. Clones were DNA sequenced to verify the presence of the desired mutation(s) and electroporated into MT-2 cells as described above to generate infectious mutant recombinant HIV-1.
(§4) Mutant RT was generated via oligonucleotide-directed mutagenesis and ligated into the pXXHIV-1LAI cloning vector. Cloning was facilitated by the presence of two silent restriction sites at the 5′ and 3′ ends (Xma1 and Xba1, respectively) of pXXHIV-1LAI RT. Infectious mutant recombinant HIV-1 was generated by electroporating MT-2 cells with mutated pXXHIV-1LAI clones. The presence of the desired mutations was verified by DNA sequencing.
(§5) Invention compounds were also evaluated against a panel of HIV-1LAI derived recombinants resistant to PFA and the PFA invention compounds, as shown in Table 7.

[2] = test system: HIV-1LAI 4XAZT/W88G; assay: p24 reduction assay in MT-2 cells, 4XAZT/W88G; assay type: cell-based
Procedure: as §1, §2, §3, §4, §5
Recombinant viruses containing the mutations selected by invention compounds were also evaluated for their susceptibility to AZT, as shown in Table 8.

[3] = test system: 11163p3 (multinucleoside resistant clinical isolate); assay: p24 reduction assay in MT-2 cells, 11163p3; assay type: cell-based, HIV-1; details: Table 4; for EC50: 11163p3, mean ± SD; for Fold-resistance: 11163p3 relative to wild type virus
Procedure: as §1, §2
(§6) The MNR panel consisted of a virus containing the mutations V75I, F77L, F116Y and […], a virus containing the T69S[SA insert], and a clinical isolate carrying the classic MNR genotype (62V/751/77L/116Y/151M). Each of the PFA invention compounds retained potency against these viruses with fold resistance values of <2.

[4] = test system: HIV-1LAI T215Y; assay: p24 reduction assay in MT-2 cells, T215Y; assay type: cell-based; details: Table 1, MOI 0.01
Procedure: as §1, §2, §3
Mutant RT was generated via oligonucleotide-directed mutagenesis and ligated into the pXXHIV-1LAI cloning vector. Cloning was facilitated by the presence of two silent restriction sites at the 5′ and 3′ ends (Xma1 and Xba1, respectively) of pXXHIV-1LAI RT. […]

[5] = test system: HIV-1LAI Q161L/H208Y; assay: p24 reduction assay in MT-2 cells, Q161L/H208Y; assay type: cell-based; details: Table 7; for EC50: Q161L/H208Y; for Fold-resistance: Q161L/H208Y relative to wild type virus
Procedure: as §1, §2, §3, §4, §5

[6] = test system: HIV-1LAI 4XAZT/Q161L/H208Y; assay: p24 reduction assay in MT-2 cells, 4XAZT/Q161L/H208Y; assay type: cell-based; details: Table 7; for EC50: 4XAZTQ161L/H208Y; for Fold-resistance: 4XAZTQ161L/H208Y relative to wild type virus
Procedure: as §1, §2, §3, §4, §5

[7] = test system: 9GC (multinucleoside resistant recombinant virus D67E, S68T, T69S[SA insert], T215Y); assay: p24 reduction assay in MT-2 cells, virus 9GC; assay type: cell-based, HIV-1; details: Table 4; for Fold-resistance: virus 9GC relative to wild type virus; for EC50: virus 9GC, mean ± SD
Procedure: as §1, §2, §6

[8] = test system: HIV-1 G2-3g (molecularly cloned isolate co-resistant to AZT and 3TC); assay: p24 reduction assay in MT-2 cells, G2-3g; assay type: cell-based; details: for EC50: G2-3g; for Fold-resistance: G2-3g relative to wild type virus
Procedure: as §1, §2
The multi-drug resistant HIV-1 strains, 11163p1 and 11588p1, are human clinical isolates having the RT mutations indicated. HIV-1 strains treated with the lipid analogs of the present invention include wild type, e.g., xxLAI, and the like, single mutation, e.g., xxLAI MI 84V (resistant to 3TC), xxLAI L74V (resistant to ddI and ddC), xxLAI K65R (resistant to ddI, ddC, DAPD, DXG, tenofovir, and adefovir), xxLAI T215Y (resistant to AZT), and the like, double mutations, e.g., xxLAI M41 L/T215Y (resistant to AZT), xxLAI MI 84V/T215Y (resistant to 3TC and AZT), and the like, and multiple mutations, e.g., xxLAI 4XAZT ((D67N, K70R, T215Y, K219Q) resistant to AZT)), xxLAI 4XAZT/M184V ((D67N, K70R, M 184V, T215Y, K219Q) resistant to AZT and 3TC), xxLAI M5456-12 (AZT+NNRTI resistant: D67N, K70R, K103N, T215Y), xxLAI G2-3g (AZT/3TC co-resistant: M41L, D67N, M184V, H208Y, L210W, R211K, L214F, T215Y, 1293V, E297A), 11163 (multinucleoside resistant virsus: M41L, A62V, V751, F77L, K103N, F116Y, Q151M, Y181C, M184V), 11588 (multinucleoside resistant virsus: A62V, K65R, K70R, V751, F77L, F116Y, Q151M, M184V, K219Q), and the like.

[9] = test system: HIV-1LAI 4XAZT/E89K; assay: p24 reduction assay in MT-2 cells, 4XAZT/E89K; assay type: cell-based; details: Table 7; for EC50: 4XAZTE89K; for Fold-resistance: 4XAZTE89K relative to wild type virus
Procedure: as §1, §2, §3, §4, §5

[10] = test system: HIV-1LAI 4XAZT/Q161L; assay: p24 reduction assay in MT-2 cells, 4XAZT/Q161L; assay type: cell-based; details: Table 7; for EC50: 4XAZTQ161L; for Fold-resistance: 4XAZTQ161L relative to wild type virus
Procedure: as §1, §2, §3, §4, §5

[11] = Table 7, W88G relative to wild type virus
[12] = Table 7, 4XAZTW88G, read-out: EC50
[13] = Human immunodeficiency virus 1, MT2

Structure (SMILES)	EC50 [3]	Fold-resistance [3]	EC50 [4]	EC50 [5]	Fold-resistance [5]	EC50 [6]	Fold-resistance [6]	Fold-resistance [1, 11]	EC50 ([1]; Table 7, read-out: EC50)	EC50 [2, 12]	Fold-resistance [7]	EC50 [7]	EC50 ([8]; Table 1, MOI 0.01)	Fold-resistance ([8]; Table 5)	EC50 ([8]; Table 5, mean ± SD)	EC50 [9]	Fold-resistance [9]	EC50 [10]	Fold-resistance [10]	further results
Cc1cn([C@H]2C[C@H](N=[N+]=[N-])[C@@H](CO)O2)c(=O)[nH]c1=O [AZT, 3′-Azido-3′-deoxythymidine]																				EC50 ([1]; Human immunodeficiency virus 1, MT2, Table 8, read-out: AZT EC50): 0.019 ± 0.013 µM; Fold resistance ([1]; Table 8, W88G relative to wild type virus): 0.9; EC50 ([2]; Human immunodeficiency virus 1, MT2, Table 8, W88G/4XAZT, read-out: AZT EC50): 0.06 ± 0.018 µM; Fold resistance ([2]; Table 8, W88G/4XAZT relative to wild type virus): 1.5
CCCCCCCCCCCCCCCCCCOC[C@@H](O)COP(=O)(O)C(=O)O [B-PFA, 1-O-octadecyl-sn-glycero-3-PFA]	1.1 ± 0.53 µM	(0.6)	0.84 µM	> 30 µM	(>17.2)	6.2 µM	0.85 (2.4)	(>17.2)	> 30 µM	16.4 µM	(1.6)	4.1 ± 1.2 µM	1.47 µM	(0.9)	1.67 ± 0.95 µM	17.4 µM	14.9 (6.6)	6.64 µM	2.10 (2.5)	
CCCCCCCCCCCCCCCCCCOC[C@H](COP(=O)(O)C(=O)O)OCC [EB-PFA, 1-O-octadecyl-2-O-ethyl-sn-glycero-3-PFA]	0.5 ± 0.06 µM	(0.8)	0.14 µM	7.02 µM		2.02 µM	0.54 (2.6)	0.64 (7.6)	6.8 µM	3.31 µM	(0)	0.2 ± 0.3 µM	0.32 µM	(0.5)	0.3 ± 0.04 µM	4.39 µM	4.59 (5.6)	1.18 µM		Fold resistance ([1]; Example 6, recombinant virus encoding W88G): 9.4 fold
CCCCCCCCCCCCCCCCCCOC[C@H](COP(=O)(O)C(=O)O)OC [MB-PFA, 1-O-octadecyl-2-O-methyl-sn-glycero-3-PFA]	0.4 ± 0.28 µM	(0.9)	0.27 µM	12.8 µM	9.00 (17.7)		0.14 (2.7)	4.42 (7.6)	5.88 µM	2.46 µM	(0)		0.26 µM	(0.8)	0.4 ± 0.26 µM	9.28 µM	9.20 (11.1)	1.87 µM	0.33 (2.2)	
O=C(O)P(=O)(O)O [PFA, phosphonoformate, reference compound]		(0.9)					17.50 (2.4)	14.28 (11.7)			(1.1)			(0.5)					9.40 (2.3)	EC50 [3, 13]: 15.5 ± 5.04 µM; EC50 [5, 13]: 126 µM; EC50 [6, 13]: 43.1 µM; EC50 ([1]; Human immunodeficiency virus 1, MT2, Table 7, read-out: EC50): 152 µM; Fold resistance ([1]; {}): 6.2 fold; EC50 ([2]; Human immunodeficiency virus 1, MT2, Table 7, 4XAZTW88G, read-out: EC50): 86.2 µM; EC50 [7, 13]: 13.2 ± 12.8 µM; EC50 ([8]; Human immunodeficiency virus 1, MT2, Table 1, MOI 0.01): 7.6 µM; EC50 ([8]; Human immunodeficiency virus 1, MT2, Table 5, mean ± SD): 8.85 ± 3.49 µM; EC50 [9, 13]: 134 µM; EC50 [10, 13]: 39.9 µM
